These results are taken from US11192852B2, “Pyrazolyl and pyrimidinyl tricyclic enones as antioxidant inflammation modulators” (REATA PHARMACEUTICALS, INC., priority 2010, dated 2021).

What is called IC50 is the concentration needed to halve the response being measured.

The subject of this experiment is IFNγ-induced NO production in RAW264.7 mouse macrophages. The experiment in a line: Suppression of IFNγ-induced nitric oxide production (Griess reagent). The experiment is classed as cell-based. As to conditions: 2 h pre-treatment (0-200 nM), then IFNγ 24 h, normalized to cell viability. The source says:
Nitric Oxide Production and Cell Viability.
On the technique in general: Griess reagent forms a coloured azo dye with nitrite.

The mark [1] stands for this setting: Mus musculus, RAW264.7, RAW264.7 cells.

With `C[C@@H]1C(=O)C(C#N)=C[C@]2(C)c3c(c(Br)nn3C)CC[C@@H]12` [TX63649], under setting [1], the IC50 came out at 21 nM.
Same read-out and setting: the result for `Cc1cccc(-c2c3c(nn2C)[C@@]2(C)C=C(C#N)C(=O)[C@@H](C)[C@@H]2CC3)c1` [TX63650] reads 6.1 nM; that for `C#Cc1c2c(nn1C)[C@@]1(C)C=C(C#N)C(=O)C(C)(C)[C@@H]1CC2` [TX63651], 23 nM.
Same read-out and setting: the result for `C[C@@H]1C(=O)C(C#N)=C[C@]2(C)c3nn(C)c(C(=O)N(C)C)c3CC[C@@H]12` [TX63655] reads over 200 nM.
As to `CC1=C2CCc3c(nn(C)c3-c3cccc(C)c3)[C@@]2(C)C=C(C#N)C1=O` [TX63656], under setting [1], the IC50 was over 200 nM.
For the compound `C[C@@H]1C(=O)C(C#N)=C[C@]2(C)c3nn(C)c(-c4cccc(F)c4)c3CC[C@@H]12` [TX63659], under setting [1], the 50% inhibitory concentration (IC50) was 8.1 nM.
On the same count and under the same terms, the result for `CC1=C2CCc3c(nn(C)c3-c3cccc(F)c3)[C@@]2(C)C=C(C#N)C1=O` [TX63663] reads 108 nM; that for `COc1cccc(-c2c3c(nn2C)[C@@]2(C)C=C(C#N)C(=O)[C@@H](C)[C@@H]2CC3)c1` [TX63664], 8 nM; that for `Cn1nnc(-c2c3c(nn2C)[C@@]2(C)C=C(C#N)C(=O)C(C)(C)[C@@H]2CC3)n1` [TX63665], 14 nM.
Same read-out and setting: the result for `C[C@@H]1C(=O)C(C#N)=C[C@]2(C)c3nc(-c4ccccc4)n(C)c(=O)c3CC[C@@H]12` [TX63666] reads 25 nM.
Regarding `Cn1nc2c(c1C(=O)c1ccccc1)CC[C@H]1C(C)(C)C(=O)C(C#N)=C[C@]21C` [TX63667], the IC50 under setting [1] came out at 155 nM.
On the same count and under the same terms, the result for `Cn1[nH]c2c(c1=O)CC[C@H]1C(C)(C)C(=O)C(C#N)=C[C@]21C` [TX63676] reads over 200 nM; that for `C[C@@H]1C(=O)C(C#N)=C[C@]2(C)c3nn(C)c(-c4cnn(C)c4)c3CC[C@@H]12` [TX63690], 11 nM.
As to `COc1c2c(nn1C)[C@@]1(C)C=C(C#N)C(=O)C(C)(C)[C@@H]1CC2` [TX63691], the IC50 under setting [1] is 62 nM.
Regarding `CN1N=C2C(C)(CC[C@H]3C(C)(C)C(=O)C(C#N)=C[C@]23C)C1=O` (stereo partly shown) [TX63692], under setting [1], the IC50 is over 200 nM.
As to `Cn1cnc(-c2c3c(nn2C)[C@@]2(C)C=C(C#N)C(=O)C(C)(C)[C@@H]2CC3)n1` [TX63714], the IC50 under setting [1] is over 200 nM.
Take `COc1nc(OC)c2c(n1)[C@@]1(C)C=C(C#N)C(=O)[C@@H](C)[C@@H]1CC2` [TX63718]: the IC50 (RAW264.7 cells) stood at 6 nM.
For the compound `C[C@@H]1C(=O)C(C#N)=C[C@]2(C)c3nn(C)c(-c4nnn(C)n4)c3CC[C@@H]12` [TX63719], under setting [1], the half-inhibitory concentration (IC50) is 5.9 nM.
The same measure, in the same setting: the result for `C[C@@H]1C(=O)C(C#N)=C[C@]2(C)c3nn(C)c(-c4ccncc4)c3CC[C@@H]12` [TX63720] reads 4.9 nM; that for `C[C@@H]1C(=O)C(C#N)=C[C@]2(C)c3nn(C)c(-c4ccccc4F)c3CC[C@@H]12` [TX63721], 7.8 nM.
For the compound `C[C@@H]1C(=O)C(C#N)=C[C@]2(C)c3nn(C)c(-c4cccnc4)c3CC[C@@H]12` [TX63722], the IC50 under setting [1] was 8.3 nM.
For the compound `Cc1nc(-c2c3c(nn2C)[C@@]2(C)C=C(C#N)C(=O)C(C)(C)[C@@H]2CC3)no1` [TX63723], the IC50 under setting [1] stood at 35 nM.
In the case of `C[C@@H]1C(=O)C(C#N)=C[C@]2(C)c3nn(C)c(C#N)c3CC[C@@H]12` [TX63725], under setting [1], the IC50 was 24 nM.
As for `COc1ccccc1-c1nc(OC)c2c(n1)[C@@]1(C)C=C(C#N)C(=O)[C@@H](C)[C@@H]1CC2` [TX63727], the IC50 under setting [1] stood at 11.5 nM.
Still for that read-out and setting: the result for `COc1nc(-c2ccncc2)nc2c1CC[C@H]1[C@H](C)C(=O)C(C#N)=C[C@]21C` [TX63728] reads 6.7 nM.
For `Cn1nc2c(c1-c1nnn(Cc3ccccc3)n1)CC[C@H]1C(C)(C)C(=O)C(C#N)=C[C@]21C` [TX63729], the IC50 under setting [1] amounted to 29 nM.
For the compound `CCOC(=O)c1nc(OC)c2c(n1)[C@@]1(C)C=C(C#N)C(=O)[C@@H](C)[C@@H]1CC2` [TX63730], the half-inhibitory concentration (IC50) under setting [1] stood at 16 nM.
Still for that read-out and setting: the result for `CCOc1nc(-c2ccccc2)nc2c1CC[C@H]1[C@H](C)C(=O)C(C#N)=C[C@]21C` [TX63731] reads 32 nM; that for `CC(C)n1nnc(-c2c3c(nn2C)[C@@]2(C)C=C(C#N)C(=O)C(C)(C)[C@@H]2CC3)n1` [TX63734], 43 nM; that for `Cc1nnc(-c2c3c(nn2C)[C@@]2(C)C=C(C#N)C(=O)C(C)(C)[C@@H]2CC3)o1` [TX63735], 15.6 nM.
On the same count and under the same terms, the result for `CCOc1nc(OCC)c2c(n1)[C@@]1(C)C=C(C#N)C(=O)[C@@H](C)[C@@H]1CC2` [TX63736] reads 9.8 nM; that for `C[C@@H]1C(=O)C(C#N)=C[C@]2(C)c3nn(C)c(-c4cncnc4)c3CC[C@@H]12` [TX63748], 23 nM; that for `COc1nc(-c2cncnc2)nc2c1CC[C@H]1[C@H](C)C(=O)C(C#N)=C[C@]21C` [TX63757], 4.3 nM.
`Cc1nc(N2CCOCC2)c2c(n1)[C@@]1(C)C=C(C#N)C(=O)[C@@H](C)[C@@H]1CC2` [TX63758]: the half-maximal inhibitory concentration (IC50) under setting [1] came to 55 nM.
For the compound `Cc1noc(-c2c3c(nn2C)[C@@]2(C)C=C(C#N)C(=O)C(C)(C)[C@@H]2CC3)n1` [TX63760], the IC50 under setting [1] stood at 6.2 nM.
The same measure, in the same setting: the result for `COc1nc(C2CC2)nc2c1CC[C@H]1[C@H](C)C(=O)C(C#N)=C[C@]21C` [TX63761] reads 8.9 nM; that for `CCOc1nc(C)nc2c1CC[C@H]1[C@H](C)C(=O)C(C#N)=C[C@]21C` [TX63773], 6 nM.
Still for that read-out and setting: the result for `Cc1nc(N(C)C)c2c(n1)[C@@]1(C)C=C(C#N)C(=O)[C@@H](C)[C@@H]1CC2` [TX63774] reads 26.7 nM.
The same measure, in the same setting: the result for `C[C@@H]1C(=O)C(C#N)=C[C@]2(C)c3nn(C)c(N4C(=O)NC(C)(C)C4=O)c3CC[C@@H]12` [TX63776] reads over 200 nM; that for `C[C@@H]1C(=O)C(C#N)=C[C@]2(C)c3nn(C)c(-c4ccccc4)c3CC[C@@H]12` [TX63791], 2.3 nM; that for `C[C@H]1C(=O)C(C#N)=C[C@@]2(C)c3nn(C)c(-c4ccccc4)c3CC[C@H]12` [TX63792], 147 nM.
In the case of `COc1nc(OC)c2c(n1)[C@@]1(C)C=C(C#N)C(=O)[C@@H](C)[C@@H]1CC2` [TX63793], where the note is “RAW264.7 cells”, the IC50 came to 2.5 nM.
On to `COc1nc(OC)c2c(n1)[C@]1(C)C=C(C#N)C(=O)[C@H](C)[C@H]1CC2` [TX63794], for which, under setting [1], the IC50 was found to be 88.5 nM.
As to `Cn1nc2c(c1-c1ccccc1)CC[C@H]1C(C)(C)C(=O)C(C(F)(F)F)=C[C@]21C` [TX63803], under setting [1], the IC50 was 50 nM.
Turning to `Cn1nc2c(c1-c1ccccc1)C(=O)C[C@H]1C(C)(C)C(=O)C=C[C@]21C` [TX63804], the IC50 under setting [1] was over 200 nM.
On the same count and under the same terms, the result for `CCCCNc1nc(C)nc2c1CC[C@H]1[C@H](C)C(=O)C(C#N)=C[C@]21C` [TX63827] reads 59 nM.
The same measure, in the same setting: the result for `C[C@@H]1C(=O)C(C(F)(F)F)=C[C@]2(C)c3nn(C)c(-c4ccccc4)c3CC[C@@H]12` [TX63829] reads 22 nM.
Consider `Cn1nc2c(c1-c1ccccc1)CC[C@H]1C(C)(C)C(=O)[C@]3(C#N)O[C@@H]3[C@]21C` [TX63834], for which the IC50 under setting [1] came out at 105 nM.
Same read-out and setting: the result for `C[C@@H]1C(=O)C(C#N)=C[C@]2(C)c3n[nH]c(-c4ccccc4)c3CC[C@@H]12` [TX63836] reads 6.1 nM.
For `C[C@@H]1C(=O)[C@]2(C#N)O[C@@H]2[C@]2(C)c3nn(C)c(-c4ccccc4)c3CC[C@@H]12` [TX63848], the IC50 under setting [1] was determined as 9.5 nM.
Turning to `C[C@@H]1C(=O)C(C#N)=C[C@]2(C)c3nn(C)c(-c4cn(C)[n+]([O-])c4)c3CC[C@@H]12` [TX63849], the IC50 under setting [1] is over 200 nM.
On the same count and under the same terms, the result for `CC(=O)n1nc2c(c1-c1ccccc1)CC[C@H]1[C@H](C)C(=O)C(C#N)=C[C@]21C` [TX63850] reads 8.9 nM; that for `C[C@@H]1C(=O)C(C#N)=C[C@]2(C)c3nn(C)c(-c4ccccn4)c3CC[C@@H]12` [TX63851], 5.1 nM; that for `CNc1nc(C)nc2c1CC[C@H]1[C@H](C)C(=O)C(C#N)=C[C@]21C` [TX63852], 30 nM.
Regarding `COc1nc(C(C)(C)C)nc2c1CC[C@H]1[C@H](C)C(=O)C(C#N)=C[C@]21C` [TX63853], the IC50 under setting [1] is 31 nM.
Regarding `Cc1nnc(-c2c3c(nn2C)[C@@]2(C)C=C(C#N)C(=O)[C@@H](C)[C@@H]2CC3)o1` [TX63857], the IC50 under setting [1] was 6.3 nM.
Turning to `CCOC(=O)n1nc2c(c1-c1ccccc1)CC[C@H]1[C@H](C)C(=O)C(C#N)=C[C@]21C` [TX63871], the IC50 under setting [1] worked out at 7.5 nM.
For `Cc1noc(-c2c3c(nn2C)[C@@]2(C)C=C(C#N)C(=O)[C@@H](C)[C@@H]2CC3)n1` [TX63872], the IC50 under setting [1] is 4.6 nM.
`COc1ncnc2c1CC[C@H]1[C@H](C)C(=O)C(C#N)=C[C@]21C` [TX63874]: the IC50 under setting [1] turned out to be 5.5 nM.
Same read-out and setting: the result for `CCOc1nc(C(C)(C)C)nc2c1CC[C@H]1[C@H](C)C(=O)C(C#N)=C[C@]21C` [TX63900] reads 40 nM; that for `CC(C)n1cnc(-c2c3c(nn2C)[C@@]2(C)C=C(C#N)C(=O)C(C)(C)[C@@H]2CC3)n1` [TX63905], 129 nM.
